Measurements published in US20240318150A1, “METHODS FOR OXYFUNCTIONALIZATION OF VARIOUS SUBSTRATES USING BACTERIAL ENZYMES” (GECCO Biotech B.V., priority 2021, published 2024).

tested on: T3G1; test: Substrate conversion (oxyfunctionalization) by purified enzyme T3G1 with H2O2; format: biochemical, Proteobacteria bacterium; conditions: 1 mM substrate, 2 mM H2O2 (1 mM at start, to 2 mM after 90 min), 7 μM enzyme T3G1 (5 + 2 μM)
From the text: This prompted us to test the representative enzyme T3G1 against a large panel of various substrates.

Compound	% conversion
C=C(C)C1CC=C(C)CC1 (single isomer, unassigned; (+)) [(+)-limonene]	81%
C=CCCCCCCC=C [1,9-decadiene]	15%
C=CC(=C)C [2-methyl-1,3-butadiene]	trace
C=C(C)CC [2-methyl-1-butene]	trace
CC(=O)CCC1C(C)=CCCC1(C)C (stereo not drawn) [7,8-dihydro-α-ionone]	50%
C[C@]12CCC(=O)C=C1CCC2=O [(S)-Hajos-Wiechert ketone]	trace
C=CCCCCCCCC [Substrate 1-decene, 1-decene]	13%
C=CCCCCC [Substrate 1-heptene, 1-heptene]	trace
C=CCCCC [Substrate 1-hexene, 1-hexene]	trace
C=CCCCCCC [Substrate 1-octene, 1-octene]	65%
CC12CCC(=O)C=C1CCCC2=O (centres unmarked) [Wieland-miescher ketone]	10%
C/C=C\CCCC [cis-2-heptene]	81%
C/C=C\CCC [cis-2-hexene]	trace
C1=C\CCCCCC/1 [cis-cyclooctene]	83%
COc1cc(C)ccc1O [creosol]	trace
C1=CCCCC1 [cyclohexene]	32%
CCc1ccccc1 [ethylbenzene]	trace
C1=Cc2ccccc2C1 [indene]	27%
CCCCCCCC/C=C\CCCCCCCC(=O)O [oleic acid]	19%

Compound	% conversion
CC(C)NCC(O)COc1cccc2ccccc12 (centres unmarked) [propanolol, reference compound]	5%
C=Cc1ccccc1 [styrene]	61%
CSc1ccccc1 [thioanisole]	40%
C/C=C/CCC [trans-2-hexene]	trace
C/C=C/CCCCC [trans-2-octene]	99%
CC/C=C/CC [trans-3-hexene]	40%
CC/C=C/CCCC [trans-3-octene]	99%
CCC/C=C/CCC [trans-4-octene]	99%
C(=C\c1ccccc1)/c1ccccc1 [trans-stilbene]	17%
CC(=O)/C=C/C1=C(C)CCCC1(C)C [trans-β-ionone]	48%
C=C(C)[C@@H]1CCC2=CCC[C@@H](C)[C@]2(C)C1 [valencene]	3%
C/C=C\C(=O)C1C(C)=CCCC1(C)C (stereo not drawn) [α-damascone]	26%
CC1=CCCC(C)(C)C1/C=C/C(C)O (stereo not drawn) [α-ionol]	61%
CC(=O)/C=C/C1C(C)=CCCC1(C)C (stereo not drawn) [α-ionone]	61%
CC=Cc1ccccc1 [β-methyl-styrene]	86%
C/C=C/C(=O)C1C(C)C=CCC1(C)C (centres unmarked) [δ-damascone]	16%
(−)-carveol	4%
terpinene	73%

same assay, conditions: 1 mM substrate, 2 mM H2O2, 7 μM T3G1

Compound	% cis (of product, printed beside % conversion)	% double epoxide [% double epoxide]	% ee (printed beside % conversion)
C=C(C)C1CC=C(C)CC1 (single isomer, unassigned; (+)) [(+)-limonene]	(97.3% cis)	–	–
C=CCCCCCCC=C [1,9-decadiene]	–	13	–
C=Cc1ccccc1 [styrene]	–	–	(17% ee)
CSc1ccccc1 [thioanisole]	–	–	(74% ee)
